≈ marks a conversion by molar mass, not a printed value. Read-outs that look alike come from different tables or passages of the source.
What was measured:
Type in all cases: cell-based
[1] = tested on: Aspergillus fumigatus (1); assay: In vitro antifungal activity (MIC), agar dilution; details: read-out: MIC
Protocol: (§1) The antifungal activity of 1-[(2-fluorophenyl)(4-fluorophenyl)phenylmethyl]-1H-imidazole was shown by its ability to inhibit the growth of different species of yeast and filamentous fungi in vitro. The activity was recorded as the MIC value, that is, the minimum amount of product needed to achieve the complete inhibition of the in vitro growth of the test organism. Testing was performed as follows: a solution of the antifungal agent in ethanol was diluted with DST agar (pH 6.5) or Emmon's Sabouraud dextrose agar to obtain concentrations between 10 and 0.01 mcg/ml, or 80 and 0.16 mcg/m, respectively. The inoculum was standarized in order 1×10^5 cfu/ml, and 10 mcl of each organism was seeded into the agar surface. Incubation was then allowed at 30° C. during 3 days (DST) or 2 days (Emmon's) for yeasts and 10 days for filamentous fungi. Following incubation, the zones of inhibition were measured and compared to an inoculated, drug-free control to yield the MIC value.

C. albicans ATCC 10231 = assay: In vitro antifungal activity (MIC), agar dilution; details: Candida albicans, read-out: MIC
Protocol: as §1

C. albicans serotipo A = assay: In vitro antifungal activity (MIC), agar dilution; details: Candida albicans, read-out: MIC
Protocol: as §1

C. albicans serotipo B = assay: In vitro antifungal activity (MIC), agar dilution; details: Candida albicans, read-out: MIC
Protocol: as §1

[2] = tested on: C. guilliermondii SQ 2210; assay: In vitro antifungal activity (MIC), agar dilution; details: Meyerozyma guilliermondii, read-out: MIC
Protocol: as §1

[3] = tested on: C. parapsilosis (clinica); assay: In vitro antifungal activity (MIC), agar dilution; details: Lodderomyces parapsilosis, read-out: MIC
Protocol: as §1

[4] = tested on: C. pseudotropicalis ATCC 28838; assay: In vitro antifungal activity (MIC), agar dilution; details: Kluyveromyces marxianus, read-out: MIC
Protocol: as §1

[5] = tested on: Microsporum audouini ATCC 9079; assay: In vitro antifungal activity (MIC), agar dilution
Protocol: as §1

[6] = tested on: Microsporum canis (clinica); assay: In vitro antifungal activity (MIC), agar dilution
Protocol: as §1

[7] = tested on: T. mentagrophytes (clinica) (2); assay: In vitro antifungal activity (MIC), agar dilution; details: Trichophyton mentagrophytes, read-out: MIC
Protocol: as §1

[8] = tested on: T. mentagrophytes (clinica) (3); assay: In vitro antifungal activity (MIC), agar dilution; details: Trichophyton mentagrophytes, read-out: MIC
Protocol: as §1

[9] = tested on: T. mentagrophytes (clinica) (4); assay: In vitro antifungal activity (MIC), agar dilution; details: Trichophyton mentagrophytes, read-out: MIC
Protocol: as §1

[10] = tested on: T. mentagrophytes (clinica) (5); assay: In vitro antifungal activity (MIC), agar dilution; details: Trichophyton mentagrophytes, read-out: MIC
Protocol: as §1

[11] = tested on: T. mentagrophytes ATCC 9129; assay: In vitro antifungal activity (MIC), agar dilution; details: Trichophyton mentagrophytes, read-out: MIC
Protocol: as §1

[12] = tested on: T. mentagrophytes ATCC 9972; assay: In vitro antifungal activity (MIC), agar dilution; details: Trichophyton mentagrophytes, read-out: MIC
Protocol: as §1

C. albicans = assay: MIC distribution, serial dilutions in Sabouraud gentamycin broth, microplates; details: # of strains = 50
Protocol: (§2) The antifungal activity of 1-[(2-fluorophenyl)(4-fluorophenyl)phenylmethyl]-1H-imidazole and bifonazole was determined by serial dilutions in Sabouraud gentamycin broth using microplates. The antifungal agent was diluted in 50% ethanol to obtain concentrations between 40 and 0.015 mcg/ml. Inoculum was 10^7 cfu/ml for yeast and 10^6 cfu/ml for dermatophytes. Incubation was allowed at 37° C. during 2 days for yeasts, and at 29° C. during 7 days for dermatophytes. MIC's were determined as in example 18. The MIC distributions obtained in 9 organisms are shown in the next tables.

C. guilliermondii = assay: as above; details: # of strains = 5
Protocol: as §2

C. krusei = assay: as above; details: # of strains = 5
Protocol: as §2

C. parapsilosis = assay: as above; details: # of strains 10 = UR-4056/14 = Bifonazole
Protocol: as §2

C. tropicalis = assay: as above; details: # of strains = 30
Protocol: as §2

M. canis = assay: as above; details: # of strains = 13
Protocol: as §2

T. glabrata = assay: as above; details: # of strains = 10 = UR-4056/15 Bifonzaole
Protocol: as §2

T. mentagrohytes = assay: as above; details: # of strains = 17
Protocol: as §2

T. rubrum = assay: as above; details: # of strains = 6
Protocol: as §2

[13] = Emmon's Sabouraud dextrose agar

Fc1ccc(C(c2ccccc2)(c2ccccc2F)n2ccnc2)cc1 (stereo not shown) [UR-4056, 1-[(2-fluorophenyl) (4-fluorophenyl)phenylmethyl]-1H-imidazole]
MIC ([1]; DST agar): 0.5 µg/mL (≈ 1.44 µM) | MIC [1, 13]: 0.63 µg/mL (≈ 1.82 µM) | MIC (C. albicans ATCC 10231; ATCC10231, DST agar): 1 µg/mL (≈ 2.89 µM) | MIC (C. albicans ATCC 10231; ATCC10231, Emmon's Sabouraud dextrose agar): 0.04 µg/mL (≈ 0.115 µM) | MIC (C. albicans serotipo A; DST agar): 1 µg/mL (≈ 2.89 µM) | MIC (C. albicans serotipo A; [13]): 1.25 µg/mL (≈ 3.61 µM) | MIC (C. albicans serotipo B; DST agar): 0.5 µg/mL (≈ 1.44 µM) | MIC (C. albicans serotipo B; [13]): 0.31 µg/mL (≈ 0.895 µM) | MIC ([2]; SQ2210, DST agar): 1 µg/mL (≈ 2.89 µM) | MIC ([2]; SQ2210, Emmon's Sabouraud dextrose agar): 0.16 µg/mL (≈ 0.462 µM) | MIC ([3]; DST agar): 0.5 µg/mL (≈ 1.44 µM) | MIC [3, 13]: 0.08 µg/mL (≈ 0.231 µM) | MIC ([4]; ATCC28838, DST agar): 0.025 µg/mL (≈ 0.0722 µM) | MIC ([4]; ATCC28838, Emmon's Sabouraud dextrose agar): 0.63 µg/mL (≈ 1.82 µM) | MIC ([5]; ATCC9079, DST agar): 0.05 µg/mL (≈ 0.144 µM) | MIC ([5]; ATCC9079, Emmon's Sabouraud dextrose agar): 0.63 µg/mL (≈ 1.82 µM) | MIC ([6]; DST agar): 0.025 µg/mL (≈ 0.0722 µM) | MIC [6, 13]: 0.63 µg/mL (≈ 1.82 µM) | MIC ([7]; DST agar): 10 µg/mL (≈ 28.9 µM) | MIC [7, 13]: 40 µg/mL (≈ 115 µM) | MIC ([8]; DST agar): 0.25 µg/mL (≈ 0.722 µM) | MIC [8, 13]: 0.16 µg/mL (≈ 0.462 µM) | MIC ([9]; DST agar): 0.1 µg/mL (≈ 0.289 µM) | MIC [9, 13]: 1.25 µg/mL (≈ 3.61 µM) | MIC ([10]; DST agar): 0.1 µg/mL (≈ 0.289 µM) | MIC [10, 13]: 1.25 µg/mL (≈ 3.61 µM) | MIC ([11]; ATCC9129, DST agar): 0.05 µg/mL (≈ 0.144 µM) | MIC ([11]; ATCC9129, Emmon's Sabouraud dextrose agar): 0.31 µg/mL (≈ 0.895 µM) | MIC ([12]; ATCC9972, DST agar): 0.25 µg/mL (≈ 0.722 µM) | MIC ([12]; ATCC9972, Emmon's Sabouraud dextrose agar): 1.25 µg/mL (≈ 3.61 µM) | MIC Distribution (number of strains) (C. albicans; MIC 0.3): 1 # of strains | MIC Distribution (number of strains) (C. albicans; MIC 2.5): 11 # of strains | MIC Distribution (number of strains) (C. albicans; MIC 5.0): 31 # of strains | MIC Distribution (number of strains) (C. albicans; MIC column 1.2): 2 # of strains | MIC Distribution (number of strains) (C. albicans; MIC column 10): 5 # of strains | MIC Distribution (number of strains) (C. guilliermondii; MIC 0.3): 1 # of strains | MIC Distribution (number of strains) (C. guilliermondii; MIC 0.6): 2 # of strains | MIC Distribution (number of strains) (C. guilliermondii; MIC column 1.2): 2 # of strains | MIC Distribution (number of strains) (C. krusei; MIC 0.3): 1 # of strains | MIC Distribution (number of strains) (C. krusei; MIC 2.5): 2 # of strains | MIC Distribution (number of strains) (C. krusei; MIC column 1.2): 1 # of strains | MIC Distribution (number of strains) (C. krusei; MIC column 40 (first)): 1 # of strains | MIC Distribution (number of strains) (C. parapsilosis; MIC 0.038): 2 # of strains | MIC Distribution (number of strains) (C. parapsilosis; MIC 0.15): 1 # of strains | MIC Distribution (number of strains) (C. parapsilosis; MIC 0.3): 2 # of strains | MIC Distribution (number of strains) (C. parapsilosis; MIC 0.6): 2 # of strains | MIC Distribution (number of strains) (C. parapsilosis; MIC column 1.2): 1 # of strains | MIC Distribution (number of strains) (C. parapsilosis; MIC column 10): 2 # of strains | MIC Distribution (number of strains) (C. tropicalis; MIC 0.6): 1 # of strains | MIC Distribution (number of strains) (C. tropicalis; MIC 2.5): 4 # of strains | MIC Distribution (number of strains) (C. tropicalis; MIC 5.0): 13 # of strains | MIC Distribution (number of strains) (C. tropicalis; MIC column 0.078): 1 # of strains | MIC Distribution (number of strains) (C. tropicalis; MIC column 1.2): 3 # of strains | MIC Distribution (number of strains) (C. tropicalis; MIC column 10): 8 # of strains | MIC Distribution (number of strains) (M. canis; MIC 0.3): 4 # of strains | MIC Distribution (number of strains) (M. canis; MIC 2.5): 4 # of strains | MIC Distribution (number of strains) (M. canis; MIC column 1.2): 5 # of strains | MIC Distribution (number of strains) (T. glabrata; MIC 0.6): 1 # of strains | MIC Distribution (number of strains) (T. glabrata; MIC 2.5): 1 # of strains | MIC Distribution (number of strains) (T. glabrata; MIC 5.0): 2 # of strains | MIC Distribution (number of strains) (T. glabrata; MIC column 10): 4 # of strains | MIC Distribution (number of strains) (T. glabrata; MIC column 20): 1 # of strains | MIC Distribution (number of strains) (T. glabrata; MIC column 40 (first)): 1 # of strains | MIC Distribution (number of strains) (T. mentagrohytes; MIC 0.15): 1 # of strains | MIC Distribution (number of strains) (T. mentagrohytes; MIC 0.3): 2 # of strains | MIC Distribution (number of strains) (T. mentagrohytes; MIC 0.6): 11 # of strains | MIC Distribution (number of strains) (T. mentagrohytes; MIC column 1.2): 3 # of strains | MIC Distribution (number of strains) (T. rubrum; MIC 0.15): 4 # of strains | MIC Distribution (number of strains) (T. rubrum; MIC 2.5): 1 # of strains | MIC Distribution (number of strains) (T. rubrum; MIC column 1.2): 1 # of strains

— patent US5149707A, “1-((2-fluorophenyl)(4-fluorophenyl)phenylmethyl)-1H-imidazole useful as antifungal agent” (J. Uriach & Cia, S.A., priority 1988, dated 1992)
